Laboratory results published in US8952024B2, “Herbicidal pyrimidone derivatives” (E I du Pont de Nemours and Company, priority 2009, dated 2015).

Assays:
Assay type in all cases: in vivo
corn (Zea mays) = assay: Test B pre-/postemergence plant response
Summary of the method: (§1)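 Response scores were assigned visually after 13 to 15 days in a greenhouse, comparing treated pots with controls on a 0–100 scale where 100 denotes complete control. Preemergence treatments went onto freshly seeded loam/sand soil; postemergence treatments onto plants 2 to 18 cm tall.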

[1] = test system: giant foxtail (Setaria faberii); assay: Test B pre-/postemergence plant response
Summary of the method: as §1

[2] = test system: goosegrass (Eleusine indica); assay: Test B pre-/postemergence plant response
Summary of the method: as §1

[3] = test system: green foxtail (Setaria viridis); assay: Test B pre-/postemergence plant response
Summary of the method: as §1

[4] = test system: johnsongrass (Sorghum halepense); assay: Test B pre-/postemergence plant response
Summary of the method: as §1

[5] = test system: lambsquarters (Chenopodium album); assay: Test B pre-/postemergence plant response
Summary of the method: as §1

[6] = test system: pigweed (Amaranthus retroflexus); assay: Test B pre-/postemergence plant response
Summary of the method: as §1

soybean (Glycine max) = assay: Test B pre-/postemergence plant response
Summary of the method: as §1

[7] = test system: velvetleaf (Abutilon theophrasti); assay: Test B pre-/postemergence plant response
Summary of the method: as §1

[8] = test system: yellow nutsedge (Cyperus esculentus); assay: Test B pre-/postemergence plant response
Summary of the method: as §1

[9] = test system: canarygrass (Phalaris minor); assay: Test B postemergence plant response
Summary of the method: (§2)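 Plants at the 1- to 4-leaf stage (2 to 18 cm tall), grown in pots of peat moss/vermiculite medium with wetting agent and starter nutrients, received postemergence applications of test chemicals. After 13 to 15 days in a greenhouse, injury was rated visually against untreated controls on a 0 (no effect) to 100 (complete control) scale.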

[10] = test system: chickweed (Stellaria media); assay: Test B postemergence plant response
Summary of the method: as §2

[11] = test system: windgrass (Apera spica-venti); assay: Test B postemergence plant response
Summary of the method: as §2

[12] = test system: winter barley (Hordeum vulgare); assay: Test B postemergence plant response
Summary of the method: as §2

[13] = 250 g ai/ha, Preemergence, 0 to 100 scale
[14] = Postemergence, 31 g ai/ha, scale 0 to 100 (0 no effect, 100 complete control)
[15] = Postemergence, 62 g ai/ha, scale 0 (no effect) to 100 (complete control), 13 to 15 days
[16] = Postemergence, 125 g ai/ha, visual rating after 13 to 15 days, scale 0 (no effect) to 100 (complete control)
[17] = Postemergence, 250 g ai/ha, scale 0 to 100
[18] = Preemergence, 31 g ai/ha, scale 0 to 100 (0 no effect, 100 complete control)
[19] = Preemergence, 62 g ai/ha, scale 0 to 100 (0 no effect, 100 complete control)
[20] = Preemergence, 125 g ai/ha, 0 to 100 scale
[21] = 31 g ai/ha, postemergence, scale 0 to 100, 0 is no effect, 100 is complete control
[22] = 62 g ai/ha, postemergence, 0 is no effect, 100 is complete control, 13 to 15 days
[23] = Postemergence, 250 g ai/ha, scale 0 to 100 (0 no effect, 100 complete control)

Compound: Cc1cccc(Cl)c1-n1c(-c2ccccc2)ncc(C(=O)C2=C(O)CCCC2=O)c1=O [Compound 46]
- Plant response rating, Corn (corn (Zea mays); [13]): 0
- Plant response rating, Corn (corn (Zea mays); [14]): 20
- Plant response rating, Corn (corn (Zea mays); [15]): 35
- Plant response rating, Corn (corn (Zea mays); [16]): 60
- Corn plant response rating (corn (Zea mays); [17]): 75
- Plant response rating, Corn (corn (Zea mays); [18]): 0
- Plant response rating, Corn (corn (Zea mays); [19]): 0
- Corn plant response rating (corn (Zea mays); [20]): 0
- Plant response rating, Foxtail, Giant [1, 13]: 25
- Plant response rating, Foxtail, Giant [1, 14]: 70
- Plant response rating, Foxtail, Giant [1, 15]: 80
- Plant response rating, Foxtail, Giant [1, 16]: 80
- Foxtail, Giant plant response rating [1, 17]: 85
- Plant response rating, Foxtail, Giant [1, 18]: 0
- Plant response rating, Foxtail, Giant [1, 19]: 0
- Foxtail, Giant plant response rating [1, 20]: 15
- Plant response rating, Goosegrass [2, 13]: 98
- Plant response rating, Goosegrass [2, 15]: 75
- Plant response rating, Goosegrass [2, 16]: 80
- Goosegrass plant response rating [2, 17]: 80
- Plant response rating, Goosegrass [2, 18]: 85
- Goosegrass plant response rating [2, 20]: 98
- Plant response rating, Foxtail, Green [3, 13]: 10
- Plant response rating, Foxtail, Green [3, 14]: 45
- Plant response rating, Foxtail, Green [3, 15]: 60
- Plant response rating, Foxtail, Green [3, 16]: 85
- Foxtail, Green plant response rating [3, 17]: 85
- Plant response rating, Foxtail, Green [3, 18]: 0
- Plant response rating, Foxtail, Green [3, 19]: 0
- Foxtail, Green plant response rating [3, 20]: 5
- Plant response rating, Johnsongrass [4, 13]: 70
- Plant response rating, Johnsongrass [4, 15]: 50
- Plant response rating, Johnsongrass [4, 16]: 70
- Johnsongrass plant response rating [4, 17]: 75
- Plant response rating, Johnsongrass [4, 18]: 0
- Plant response rating, Johnsongrass [4, 19]: 10
- Johnsongrass plant response rating [4, 20]: 45
- Plant response rating, Lambsquarters [5, 13]: 100
- Plant response rating, Lambsquarters [5, 15]: 85
- Plant response rating, Lambsquarters [5, 16]: 90
- Lambsquarters plant response rating [5, 17]: 95
- Plant response rating, Lambsquarters [5, 18]: 90
- Plant response rating, Lambsquarters [5, 19]: 90
- Lambsquarters plant response rating [5, 20]: 95
- Plant response rating, Pigweed [6, 13]: 100
- Plant response rating, Pigweed [6, 15]: 75
- Plant response rating, Pigweed [6, 16]: 80
- Plant response rating, Pigweed [6, 18]: 85
- Pigweed plant response rating [6, 20]: 95
- Plant response rating, Soybean (soybean (Glycine max); [13]): 25
- Plant response rating, Soybean (soybean (Glycine max); [15]): 80
- Plant response rating, Soybean (soybean (Glycine max); [16]): 90
- Plant response rating, Soybean (soybean (Glycine max); [18]): 0
- Soybean plant response rating (soybean (Glycine max); [20]): 15
- Plant response rating, Velvetleaf [7, 13]: 65
- Plant response rating, Velvetleaf [7, 15]: 80
- Plant response rating, Velvetleaf [7, 16]: 85
- Plant response rating, Velvetleaf [7, 18]: 0
- Velvetleaf plant response rating [7, 20]: 55
- Plant response rating, Nutsedge, Yellow [8, 13]: 90
- Plant response rating, Nutsedge, Yellow [8, 15]: 70
- Plant response rating, Nutsedge, Yellow [8, 16]: 70
- Plant response rating, Nutsedge, Yellow [8, 18]: 25
- Nutsedge, Yellow plant response rating [8, 20]: 80
- Plant response rating, Canarygrass [9, 14]: 0
- Plant response rating, Canarygrass [9, 15]: 0
- Plant response rating, Canarygrass [9, 16]: 0
- Canarygrass plant response rating [9, 17]: 0
- Plant response rating, Chickweed [10, 14]: 80
- Plant response rating, Chickweed [10, 15]: 95
- Plant response rating, Chickweed [10, 16]: 95
- Chickweed plant response rating [10, 17]: 98
- Plant response rating, Windgrass [11, 15]: 10
- Plant response rating, Windgrass [11, 16]: 15
- Plant response rating, Barley [12, 14]: 0
- Plant response rating, Barley [12, 15]: 0
- Plant response rating, Barley [12, 16]: 0
- Barley plant response rating [12, 17]: 0

Compound: CC(C)CC(=O)OC1=C(C(=O)c2cnc(-c3ccccc3)n(-c3ccccc3)c2=O)C(=O)CCC1 [Compound 83]
- Plant response rating, Corn (corn (Zea mays); [21]): 0
- Corn plant response rating (0 to 100 scale) (corn (Zea mays); [22]): 5
- Plant response rating, Corn (corn (Zea mays); [16]): 15
- Plant response rating, Corn (corn (Zea mays); [23]): 25
- Plant response rating, Foxtail, Giant [1, 21]: 80
- Foxtail, Giant plant response rating (0 to 100 scale) [1, 22]: 95
- Plant response rating, Foxtail, Giant [1, 23]: 98
- Plant response rating, Goosegrass [2, 21]: 75
- Goosegrass plant response rating (0 to 100 scale) [2, 22]: 80
- Plant response rating, Goosegrass [2, 23]: 95
- Plant response rating, Foxtail, Green [3, 21]: 90
- Foxtail, Green plant response rating (0 to 100 scale) [3, 22]: 95
- Plant response rating, Foxtail, Green [3, 23]: 98
- Plant response rating, Johnsongrass [4, 21]: 95
- Johnsongrass plant response rating (0 to 100 scale) [4, 22]: 100
- Plant response rating, Johnsongrass [4, 23]: 100
- Plant response rating, Lambsquarters [5, 21]: 95
- Lambsquarters plant response rating (0 to 100 scale) [5, 22]: 98
- Plant response rating, Lambsquarters [5, 23]: 100
- Plant response rating, Pigweed [6, 21]: 80
- Pigweed plant response rating (0 to 100 scale) [6, 22]: 90
- Plant response rating, Pigweed [6, 23]: 100
- Plant response rating, Soybean (soybean (Glycine max); [21]): 75
- Soybean plant response rating (0 to 100 scale) (soybean (Glycine max); [22]): 90
- Plant response rating, Soybean (soybean (Glycine max); [23]): 95
- Plant response rating, Velvetleaf [7, 21]: 85
- Velvetleaf plant response rating (0 to 100 scale) [7, 22]: 90
- Plant response rating, Velvetleaf [7, 23]: 100
- Plant response rating, Nutsedge, Yellow [8, 21]: 10
- Nutsedge, Yellow plant response rating (0 to 100 scale) [8, 22]: 20
- Plant response rating, Nutsedge, Yellow [8, 23]: 85
- Plant response rating, Canarygrass [9, 21]: 20
- Canarygrass plant response rating (0 to 100 scale) [9, 22]: 20
- Plant response rating, Canarygrass [9, 16]: 25
- Plant response rating, Canarygrass [9, 23]: 25
- Plant response rating, Chickweed [10, 21]: 90
- Chickweed plant response rating (0 to 100 scale) [10, 22]: 90
- Plant response rating, Chickweed [10, 16]: 98
- Plant response rating, Chickweed [10, 23]: 100
- Plant response rating, Windgrass [11, 21]: 5
- Windgrass plant response rating (0 to 100 scale) [11, 22]: 10
- Plant response rating, Windgrass [11, 23]: 30
- Plant response rating, Barley [12, 21]: 0
- Barley plant response rating (0 to 100 scale) [12, 22]: 5
- Plant response rating, Barley [12, 16]: 5
- Plant response rating, Barley [12, 23]: 5
